The text below walks through data of EP3046573B1, “AMYLIN ANALOGUES” (Zealand Pharma A/S, priority 2013, dated 2015).

The structures appear in SMILES notation. Numbered stars: 1 amine (or outer) side, 2 acyl side, 3 side chain; on linkers, the order of the positions; unused ones are H or OH. Bridge positions count the residues as written; N and C are the ends. Square brackets hold non-standard residues; d marks the D form. Peptide text beside a SMILES is read from it. * marks the point of attachment. C20 diacid = O=C(O)CCCCCCCCCCCCCCCCCCC(=O)*; γGlu = O=C(O)[C@H](CCC(=O)[*:2])N[*:1]; Hyp = O=C(O)[C@@H]1C[C@@H](O)CN1; NMeI = CC[C@H](C)[C@H](NC)C(=O)O; Sar = CNCC(=O)O

A short description of data set [1]: Assessment of chemical stability: normalized purity by RP-HPLC after incubation at 40 °C. The data set is classed as physicochemical. The note with it: normalized purity (T=0 set to 100), 0.2 mg/ml. Summed up: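 Peptides at 0.2 mg/ml in water adjusted to pH 4, 7.5 or 9, held at 40 °C for 7 days. Purity by RP-HPLC (C8/ammonium formate or C18/TFA gradients), UV 220 nm, as main-peak area-%; normalized to T=0 set as 100 for each pH.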

The nature of data set [2]: Pharmacokinetic (PK) profiling in rats. The data set is classed as in vivo. The note with it: male, Sprague Dawley, rat, plasma, single sc bolus, 100 nmol/kg (18, NN96), 20 nmol/kg (72, 76), 30 nmol/kg (73, 82, 118, 162, 166, 172); for CL/F: apparent clearance; for half-life: terminal elimination half-life, read-out: t½ (converted). The method, then: Sprague Dawley male rats were given a single subcutaneous (sc) bolus of each peptide to be tested at doses as specified below..
Study A: Following the administration of a 100 nmol/kg dose of a test peptide of the invention (Compound 18) and a comparison pramlintide analogue NN96 (see Example 5, above), respectively, blood samples were drawn from the tail vein at 0.5, 3, 8, 15, 36, 60 and 81 hours post-dosing. 4 rats were used (2 rats per compound). The rats were euthanized immediately after the last blood sampling by overdose of O2/CO2.
Study B: 20 nmol/kg doses of Compound 72 and Compound 76, respectively, of the invention were administered. Blood samples were drawn by sublingual bleeding prior to dosing and at 2, 6, 12, 24, 48, 72 and 96 hours after dosing. 4 rats were used (2 rats per compound). The rats were euthanized immediately after the last blood sampling by overdose of O2/CO2.
Study C: 30 nmol/kg doses of Compound 73, Compound 82 and Compound 118, respectively, of the invention were administered. Blood samples were drawn from the tail vein prior to dosing and at 24, 48, 72 and 96 hours after dosing. Blood samples were taken from two rats at each time point, and only 2 blood samples were drawn from each rat, i.e. 8 rats were used for each compound. The rats were euthanized immediately after the last blood sampling by concussion and cervical dislocation.
Study D: 30 nmol/kg doses of Compound 162, Compound 166 and Compound 172 were administered. Blood samples were drawn from the tail vein prior to dosing and at 24, 48, 72, 96 and 168 hours after dosing. Blood samples were taken from two rats at each time point, and only 2 blood samples were drawn from each rat, i.e. 10 rats were used for each compound. The rats were euthanized immediately after the last blood sampling by concussion and cervical dislocation.
The dosing vehicle used for each test peptide was a mannitol-containing histidine buffer (pH 7.0). Plasma samples were analyzed after precipitation with ethanol by liquid chromatography mass spectrometry (LC-MS/MS). Mean plasma concentrations were used for calculation of the pharmacokinetic parameters using the non-compartmental approach in Phoenix WinNonlin 6.3.
Plasma terminal elimination half-life (t½) was determined as In(2)/λz, where λz is the magnitude of the slope of the log linear regression of the log concentration versus time profile during the terminal phase. Apparent clearance (CL/F) was determined as dose/AUCinf (sc), where AUCinf is the area under the plasma concentration vs. time curve extrapolated to infinity (AUCinf = AUClast + Clast/λz, where Clast is the last observed plasma concentration).

The CL/F is the apparent clearance, not corrected for the fraction that reaches the circulation. Regarding `CC[C@H](C)[C@@H](C(=O)N[C@@H](CC(C)C)C(=O)N[C@H](CO)C(=O)N[C@@H](CO)C(=O)N[C@H](C(=O)N[C@@H](CC(N)=O)C(=O)N[C@H](C(=O)NCC(=O)N[C@@H](CO)C(=O)N[C@@H](CC(N)=O)C(=O)N[C@H](C(=O)N1CCC[C@H]1C(N)=O)[C@@H](C)O)C(C)C)[C@@H](C)O)N(C)C(=O)[C@H](C)NC(=O)CN(C)C(=O)[C@@H](Cc1ccccc1)NC(=O)[C@H](CC(N)=O)NC(=O)[C@H](CC(N)=O)NC(=O)[C@H](CO)NC(=O)[C@H](CO)NC(=O)[C@H](CCCNC(=N)N)NC(=O)[C@H](Cc1c[nH]cn1)NC(=O)[C@H](CC(C)C)NC(=O)[C@H](Cc1ccccc1)NC(=O)[C@H](CCC(=O)O)NC(=O)[C@H](C)NC(=O)[C@H](CC(C)C)NC(=O)[C@H](CCCNC(=N)N)NC(=O)[C@H](CCC(N)=O)NC(=O)[C@@H](NC(=O)[C@H](C)NC(=O)[C@@H]1CSSC[C@H](NC(=O)[C@H](CCCCN)NC(=O)CC[C@H](NC(=O)CCCCCCCCCCCCCCCCCCC(=O)O)C(=O)O)C(=O)N[C@@H](CC(N)=O)C(=O)N[C@@H]([C@@H](C)O)C(=O)N[C@@H](C)C(=O)N[C@@H]([C@@H](C)O)C(=O)N1)[C@@H](C)O` [Compound 72, [19CD]-isoGlu-KC()NTATC()ATQRLAEFLHRSSNN-DPhe-Gly(Me)-A-Ile(Me)-L-DSer-STNVGSNTP] ({C20 diacid-γGlu}-KCNTATCATQRLAEFLHRSSNN[dF][Sar]A[NMeI]L[dS]STNVGSNTP-NH2; disulfide 2-7), in data set [1] (pH 4, 7 days), the “Chem. stability; 7 days, 40°C pH 4” value came to 90 area-%. Besides, the “Chem. stability; 7 days, 40°C pH 7.5” value in data set [1] (pH 7.5, 7 days) was 81 area-%. Also, the “Chem. stability; 7 days, 40°C pH 9” value in data set [1] (pH 9, 7 days) is reported as 80 area-%. Further, in data set [2], the CL/F is 2.7 mL/h/kg and the half-life is 30.9 h.
For the molecule `CC[C@H](C)[C@@H](C(=O)N[C@@H](CC(C)C)C(=O)N[C@@H](CO)C(=O)N[C@@H](CO)C(=O)N[C@H](C(=O)N[C@@H](CCC(=O)O)C(=O)N[C@H](C(=O)NCC(=O)N[C@@H](CO)C(=O)N[C@@H](CCC(=O)O)C(=O)N[C@H](C(=O)N1C[C@H](O)C[C@H]1C(N)=O)[C@@H](C)O)C(C)C)[C@@H](C)O)N(C)C(=O)[C@H](C)NC(=O)CN(C)C(=O)[C@H](Cc1ccccc1)NC(=O)[C@H](CO)NC(=O)[C@H](CO)NC(=O)[C@H](CCCNC(=N)N)NC(=O)[C@H](Cc1c[nH]cn1)NC(=O)[C@H](CC(C)C)NC(=O)[C@H](Cc1ccccc1)NC(=O)[C@H](CCC(=O)O)NC(=O)[C@H](C)NC(=O)[C@H](CC(C)C)NC(=O)[C@H](CCCNC(=N)N)NC(=O)[C@H](CCC(=O)O)NC(=O)[C@@H](NC(=O)[C@H](C)NC(=O)[C@@H]1CSSC[C@H](NC(=O)[C@H](CCCNC(=N)N)NC(=O)CC[C@H](NC(=O)CCCCCCCCCCCCCCCCCCC(=O)O)C(=O)O)C(=O)NCC(=O)N[C@@H]([C@@H](C)O)C(=O)N[C@@H](C)C(=O)N[C@@H]([C@@H](C)O)C(=O)N1)[C@@H](C)O` [Compound 166, [19CD]-isoGlu-RC()GTATC()ATERLAEFLHRSSF-Gly(Me)-A-Ile(Me)-LSSTEVGSET-Hyp-NH2] ({C20 diacid-γGlu}-RCGTATCATERLAEFLHRSSF[Sar]A[NMeI]LSSTEVGSET[Hyp]-NH2; disulfide 2-7), in data set [2], the CL/F is 3.79 mL/h/kg and the half-life is 27.9 h.
As for `CC[C@H](C)[C@@H](C(=O)N[C@@H](CC(C)C)C(=O)N[C@@H](CO)C(=O)N[C@@H](CO)C(=O)N[C@H](C(=O)N[C@@H](CC(=O)O)C(=O)N[C@H](C(=O)NCC(=O)N[C@@H](CO)C(=O)N[C@@H](CC(=O)O)C(=O)N[C@H](C(=O)N1CCC[C@H]1C(N)=O)[C@@H](C)O)C(C)C)[C@@H](C)O)N(C)C(=O)[C@H](C)NC(=O)CN(C)C(=O)[C@H](Cc1ccccc1)NC(=O)[C@H](CO)NC(=O)[C@H](CO)NC(=O)[C@H](CCCNC(=N)N)NC(=O)[C@H](Cc1c[nH]cn1)NC(=O)[C@H](CC(C)C)NC(=O)[C@H](Cc1ccccc1)NC(=O)[C@H](CCC(=O)O)NC(=O)[C@H](C)NC(=O)[C@H](CC(C)C)NC(=O)[C@H](CCCNC(=N)N)NC(=O)[C@H](CC(=O)O)NC(=O)[C@@H](NC(=O)[C@H](C)NC(=O)[C@@H]1CSSC[C@H](NC(=O)[C@H](CCCNC(=N)N)NC(=O)CC[C@H](NC(=O)CCCCCCCCCCCCCCCCCCC(=O)O)C(=O)O)C(=O)N2CCC[C@H]2C(=O)N[C@@H]([C@@H](C)O)C(=O)N[C@@H](C)C(=O)N[C@@H]([C@@H](C)O)C(=O)N1)[C@@H](C)O` [Compound 172, [19CD]-isoGlu-RC()PTATC()ATDRLAEFLHRSSF-Gly(Me)-A-Ile(Me)-LSSTDVGSDTP-NH2] ({C20 diacid-γGlu}-RCPTATCATDRLAEFLHRSSF[Sar]A[NMeI]LSSTDVGSDTP-NH2; disulfide 2-7), in data set [2], the CL/F is 9.16 mL/h/kg and the half-life is 24.4 h.
The corresponding values for `CC[C@H](C)[C@H](NC(=O)[C@@H]1CCCN1C(=O)CNC(=O)[C@H](Cc1ccccc1)NC(=O)[C@H](CC(N)=O)NC(=O)[C@H](CC(N)=O)NC(=O)[C@H](CO)NC(=O)[C@H](CO)NC(=O)[C@H](Cc1c[nH]cn1)NC(=O)[C@H](Cc1c[nH]cn1)NC(=O)[C@H](CC(C)C)NC(=O)[C@H](Cc1ccccc1)NC(=O)[C@H](CCC(=O)O)NC(=O)[C@H](C)NC(=O)[C@H](CC(C)C)NC(=O)[C@H](CCCNC(=N)N)NC(=O)[C@H](CCC(N)=O)NC(=O)[C@@H](NC(=O)[C@H](C)NC(=O)[C@@H]1CSSC[C@H](NC(=O)[C@H](CCCNC(=N)N)NC(=O)CC[C@H](NC(=O)CCCCCCCCCCCCCCCCCCC(=O)O)C(=O)O)C(=O)N[C@@H](CC(N)=O)C(=O)N[C@@H]([C@@H](C)O)C(=O)N[C@@H](C)C(=O)N[C@@H]([C@@H](C)O)C(=O)N1)[C@@H](C)O)C(=O)N[C@@H](CC(C)C)C(=O)N1CCC[C@H]1C(=O)N1CCC[C@H]1C(=O)N[C@H](C(=O)N[C@@H](CC(N)=O)C(=O)N[C@H](C(=O)NCC(=O)N[C@@H](CO)C(=O)N[C@@H](CC(N)=O)C(=O)N[C@H](C(=O)N1CCC[C@H]1C(N)=O)[C@@H](C)O)C(C)C)[C@@H](C)O` [NN96, N-α-[(S)-4-carboxy-4-(19-carboxynonadecanoylamino)butyryl]-[Arg1,Glu14,His17,Pro37]-pramlintide, reference compound] ({C20 diacid-γGlu}-RCNTATCATQRLAEFLHHSSNNFGPILPPTNVGSNTP-NH2; disulfide 2-7) are 4.73 mL/h/kg and 34.7 h.
